{
  "source": "patent US4804656A",
  "about": "“Novel androstane-17β-carboxylic acid esters” (Aktiebolaget Draco, priority 1985, dated 1989)",
  "data": [
    {"target": "T1, glucocorticoid receptor (Rattus norvegicus, UniProt P06536)", "T1 construct": "The thymus was removed and put into ice-cold saline; The tissue was homogenized in a Potter Elvehjem homogenizer; from tissue; host or cells: thymus of male Sprague-Dawley rats, 20,000×g supernatant of homogenate", "T1 sequence (P06536 1-795)": "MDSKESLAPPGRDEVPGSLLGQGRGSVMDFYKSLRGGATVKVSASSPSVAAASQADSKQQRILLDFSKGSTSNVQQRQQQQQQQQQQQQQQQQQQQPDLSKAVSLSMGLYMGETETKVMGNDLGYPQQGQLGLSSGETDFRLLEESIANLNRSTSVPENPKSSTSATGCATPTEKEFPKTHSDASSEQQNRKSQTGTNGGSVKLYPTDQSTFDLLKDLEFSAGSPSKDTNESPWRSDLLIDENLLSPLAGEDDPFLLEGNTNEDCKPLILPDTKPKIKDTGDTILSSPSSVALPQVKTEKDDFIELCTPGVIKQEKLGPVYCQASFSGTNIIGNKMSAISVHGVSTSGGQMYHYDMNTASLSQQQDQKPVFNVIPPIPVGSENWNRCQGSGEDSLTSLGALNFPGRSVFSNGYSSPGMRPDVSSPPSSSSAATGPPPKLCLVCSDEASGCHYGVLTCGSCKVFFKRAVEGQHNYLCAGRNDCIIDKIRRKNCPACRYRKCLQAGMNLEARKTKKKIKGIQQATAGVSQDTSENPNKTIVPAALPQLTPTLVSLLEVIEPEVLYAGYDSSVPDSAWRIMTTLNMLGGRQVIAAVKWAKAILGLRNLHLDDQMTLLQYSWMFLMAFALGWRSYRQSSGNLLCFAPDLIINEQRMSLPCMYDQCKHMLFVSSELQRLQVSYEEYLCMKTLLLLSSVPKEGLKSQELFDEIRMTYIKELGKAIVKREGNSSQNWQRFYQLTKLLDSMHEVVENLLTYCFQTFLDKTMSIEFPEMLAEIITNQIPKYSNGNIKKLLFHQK", "assay": "Affinity to the glucocorticoid receptor: competition with 3H-labelled dexamethasone in rat thymus 20,000×g supernatant", "settings": "curves compared at the 50% specific binding level, referenced to budesonide = 1, 3 nM 3H-dexamethasone, about 24 h at 0° C.", "protocol": "All steroids according to the present invention are physiologically active compounds. The affinity of the novel androstane-17β-carboxylic acid esters to the glucocorticoid receptor has been used as a model for determination of the anti-inflammatory potency.\nMale Sprague-Dawley rats, one to two months of age, were used throughout the investigation. The thymus was removed and put into ice-cold saline. The tissue was homogenized in a Potter Elvehjem homogenizer in 10 ml of a buffer containing 20 mM Tris, pH 7.4, 10% (w/v) glycerol, 1 mM EDTA, 20 mM NaMoO4, 10 mM mercaptoethanol. The homogenate was centrifuged for 15 min at 20,000×g. Portions of the 20,000×g supernatant (230 μl) were incubated for about 24 h at 0° C. with 100 μl phenylmethylsulphonylfluoride (an esterase inhibitor, final conc. 0.5 mM), 20 μl unlabelled competitor and 50 μl ^3 H-labelled dexamethasone (final conc. 3 nM). Bound and free steroid were separated by incubating the mixture with 60 μl 2.5% (w/v) charcoal and 0.25% (w/v) dextran T70 suspension in […], pH 7.4, 1 mM EDTA, and […] for 10 min at 0° C. Following a centrifugation at 500×g for 10 min, 230 μl of the supernatant was counted in 10 ml Insta-Gel in a Packard scintillation spectrophotometer. The supernatants were incubated with a) [^3 H]dexamethasone alone, b) [^3 H] dexamethasone plus 1000 fold excess of unlabelled dexamethasone and c) [^3 H] dexamethasone plus 0.03-300 fold \"excess\" competitor. The nonspecific binding was determined when 1000 fold excess of unlabelled dexamethasone was added to [^3 H]-labelled dexamethasone.\nThe radioactivity bound to the receptor in the presence of competitor divided by the radioactivity bound to the receptor in the absence of competitor multiplied by 100 gives the percentage specific binding of labelled dexamethasone. For each concentration of a competitor the percentage specifically bound radioactivity is plotted against the log of concentration of competitor. The curves are compared at the 50% specific binding level and reference to budesonide, which is assigned a relative binding affinity (RBA) of 1.", "values": [
      {"smiles": "CCOC(=O)OC(C)OC(=O)[C@@]1(OC(=O)CC)[C@@H](C)C[C@H]2[C@@H]3CCC4=CC(=O)C=C[C@]4(C)[C@@]3(F)[C@@H](O)C[C@@]21C", "note": "(single isomer, unassigned) [1 (epimer B), 1'-ethoxycarbonyloxyethyl 9α-fluoro-11β-hydroxy-16β-methyl-3-oxo-17α-propionyloxyandrosta-1,4-diene-17β-carboxylate]", "RBA (relative binding affinity)": 0.80},
      {"smiles": "CCC(=O)O[C@]1(C(=O)OC(C)OC(=O)NC(C)C)[C@@H](C)C[C@H]2[C@@H]3CCC4=CC(=O)C=C[C@]4(C)[C@@]3(F)[C@@H](O)C[C@@]21C", "note": "(single isomer, unassigned) [2 (epimer B), 1'-isopropylcarbamoyloxyethyl 9α-fluoro-11β-hydroxy-16β-methyl-3-oxo-17α-propionyloxyandrosta-1,4-diene-17β-carboxylate]", "RBA (relative binding affinity)": 0.14},
      {"smiles": "CCCCC(=O)O[C@]1(C(=O)OC(C)OC(=O)N(CC)CC)[C@@H](C)C[C@H]2[C@@H]3CCC4=CC(=O)C=C[C@]4(C)[C@@]3(F)[C@@H](O)C[C@@]21C", "note": "(single isomer, unassigned) [3 (epimer B), 1'-diethylcarbamoyloxyethyl 9αfluoro-11β-hydroxy-16β-methyl-3-oxo-17α-valeroyloxyandrosta-1,4-diene-17β-carboxylate]", "RBA (relative binding affinity)": 0.47},
      {"smiles": "CCC(=O)O[C@]1(C(=O)OC(C)OC(C)=O)[C@@H](C)C[C@H]2[C@@H]3CCC4=CC(=O)C=C[C@]4(C)[C@@]3(F)[C@@H](O)C[C@@]21C", "note": "(single isomer, unassigned) [4 (epimer B), 1'-acetyloxyethyl 9α-fluoro-11β-hydroxy-16β-methyl-3-oxo-17α-propionyloxyandrosta-1,4-diene-17β-carboxylate]", "RBA (relative binding affinity)": 0.69},
      {"smiles": "CCC(=O)O[C@]1(C(=O)OC(C)OC(=O)OCc2ccc([N+](=O)[O-])cc2)[C@@H](C)C[C@H]2[C@@H]3CCC4=CC(=O)C=C[C@]4(C)[C@@]3(F)[C@@H](O)C[C@@]21C", "note": "(single isomer, unassigned) [Example 19b]", "RBA (relative binding affinity)": 0.53},
      {"smiles": "CCOC(=O)OC(C)OC(=O)[C@@]1(OC(=O)CC)[C@H](C)C[C@H]2[C@@H]3C[C@H](F)C4=CC(=O)C=C[C@]4(C)[C@@]3(F)[C@@H](O)C[C@@]21C", "note": "(single isomer, unassigned) [Example 26b]", "RBA (relative binding affinity)": 0.45},
      {"smiles": "CCC(=O)O[C@]1(C(=O)OC(C)OC(=O)OC)[C@@H](C)C[C@H]2[C@@H]3CCC4=CC(=O)C=C[C@]4(C)[C@@]3(F)[C@@H](O)C[C@@]21C", "note": "(stereo partly shown) [Example 6b]", "RBA (relative binding affinity)": 0.42},
      {"smiles": "CCCOC(=O)OC(C)OC(=O)[C@@]1(OC(=O)CC)[C@@H](C)C[C@H]2[C@@H]3CCC4=CC(=O)C=C[C@]4(C)[C@@]3(F)[C@@H](O)C[C@@]21C", "note": "(stereo partly shown) [Example 7b]", "RBA (relative binding affinity)": 0.95},
      {"smiles": "CCC(=O)O[C@]1(C(=O)OC(C)OC(=O)OC(C)C)[C@@H](C)C[C@H]2[C@@H]3CCC4=CC(=O)C=C[C@]4(C)[C@@]3(F)[C@@H](O)C[C@@]21C", "note": "(stereo partly shown) [Example 8b]", "RBA (relative binding affinity)": 1.50},
      {"smiles": "C=CCOC(=O)OC(C)OC(=O)[C@@]1(OC(=O)CC)[C@@H](C)C[C@H]2[C@@H]3CCC4=CC(=O)C=C[C@]4(C)[C@@]3(F)[C@@H](O)C[C@@]21C", "note": "(stereo partly shown) [Example 9b]", "RBA (relative binding affinity)": 0.39},
      {"smiles": "CCC(=O)O[C@]1(C(=O)OC(C)OC(=O)OCC(C)C)[C@@H](C)C[C@H]2[C@@H]3CCC4=CC(=O)C=C[C@]4(C)[C@@]3(F)[C@@H](O)C[C@@]21C", "note": "(stereo partly shown) [Example 10b]", "RBA (relative binding affinity)": 0.82},
      {"smiles": "CCC(=O)O[C@]1(C(=O)OC(C)OC(=O)OC2CCC2)[C@@H](C)C[C@H]2[C@@H]3CCC4=CC(=O)C=C[C@]4(C)[C@@]3(F)[C@@H](O)C[C@@]21C", "note": "(stereo partly shown) [Example 13b]", "RBA (relative binding affinity)": 1.3},
      {"smiles": "CCC(=O)O[C@]1(C(=O)OC(C)OC(=O)OC2CCCC2)[C@@H](C)C[C@H]2[C@@H]3CCC4=CC(=O)C=C[C@]4(C)[C@@]3(F)[C@@H](O)C[C@@]21C", "note": "(stereo partly shown) [Example 14b]", "RBA (relative binding affinity)": 1.2},
      {"smiles": "CCC(=O)O[C@]1(C(=O)OC(C)OC(=O)OC2CCCCC2)[C@@H](C)C[C@H]2[C@@H]3CCC4=CC(=O)C=C[C@]4(C)[C@@]3(F)[C@@H](O)C[C@@]21C", "note": "(stereo partly shown) [Example 15b]", "RBA (relative binding affinity)": 0.54},
      {"smiles": "C=C(C)COC(=O)OC(C)OC(=O)[C@@]1(OC(=O)CC)[C@@H](C)C[C@H]2[C@@H]3CCC4=CC(=O)C=C[C@]4(C)[C@@]3(F)[C@@H](O)C[C@@]21C", "note": "(stereo partly shown) [Example 16b]", "RBA (relative binding affinity)": 0.51},
      {"smiles": "CCCCC(=O)O[C@]1(C(=O)OC(C)OC(=O)OC(C)C)[C@@H](C)C[C@H]2[C@@H]3CCC4=CC(=O)C=C[C@]4(C)[C@@]3(F)[C@@H](O)C[C@@]21C", "note": "(stereo partly shown) [Example 22b]", "RBA (relative binding affinity)": 0.77},
      {"smiles": "CCOC(=O)OC(C)OC(=O)[C@@]1(OC(=O)CC)[C@H](C)C[C@H]2[C@@H]3CCC4=CC(=O)C=C[C@]4(C)[C@@]3(F)[C@@H](O)C[C@@]21C", "note": "(stereo partly shown) [Example 24b]", "RBA (relative binding affinity)": 0.55},
      {"smiles": "CCOC(=O)OC(C)OC(=O)[C@@]1(OC(=O)CC)[C@@H](C)C[C@H]2[C@@H]3CCC4=CC(=O)C=C[C@]4(C)[C@@]3(Cl)[C@@H](O)C[C@@]21C", "note": "(stereo partly shown) [Example 28b]", "RBA (relative binding affinity)": 1.0},
      {"smiles": "CCC(=O)O[C@]1(C(=O)OC(C)OC(=O)OCC2CC2)[C@@H](C)C[C@H]2[C@@H]3CCC4=CC(=O)C=C[C@]4(C)[C@@]3(Cl)[C@@H](O)C[C@@]21C", "note": "(stereo partly shown) [Example 32b]", "RBA (relative binding affinity)": 0.86}
    ]}
  ]
}
